This is an account of results in a melting point compilation (Tetko et al.; mined from patent text by program, amines drawn as free bases though some values may be those of a salt).

As a reminder, the melting point is the temperature of the solid-liquid transition.

The structures appear in SMILES notation.

On to `Cc1nc2cccc3nc(SCCCCNS(=O)(=O)C(F)(F)F)c1n23`, for which the melting point was in the range of 129 to 131 °C.

Regarding `CNc1nc(C)c(-c2ccncc2)s1`, the melting point lay within 155 to 156 °C.

In turn, `CCCN(CC)c1cc(C)nc(Oc2c(C)ccc(Cl)c2C)c1C` gave a melting point of 74 to 76 °C.

Take `CC(C)OC(=O)c1ccc(Nc2cccc(Br)c2)c([N+](=O)[O-])c1`: the melting point was 162 to 165 °C.

`C=C(c1cncn1Cc1ccccc1)C(c1cc(C)cc(C)c1)c1cc(C)cc(C)c1` registered a melting point of 170 to 176 °C.

In turn, `O=c1c2c(c3cccnc3n1-c1ccccc1)N(c1ccccc1)CC2` had a melting point of 220 to 222 °C.

For the molecule `CCOC(=O)C1=C(N)NC(N)=C(C(=O)OC(C)C)C1c1ccccc1` (stereo not drawn), the melting point worked out at 170 °C.

The molecule `N#CC1(CCc2ccccc2)CCCCN1C(=O)c1ccccc1` (stereo not drawn) gave a melting point of 65 to 67 °C.

In turn, `COC(=O)c1ccc(NC(=O)c2cc(C(C)C)c(C(C)C)o2)s1` had a melting point of 175 to 177 °C.

In turn, `Cn1cc(-c2ccccc2)c(=O)c(-c2cccc(C(=O)O)c2)c1` returned a melting point of 265 to 267 °C.

Take `Cc1cc(C=C2SC(=S)NC2=O)cc(C(C)(C)C)c1O`: the melting point is 210 to 216 °C.

With `CC(=O)C(=[N+]=[N-])C(=O)CCc1ccccc1`, the melting point is 30 to 32 °C.

Take `COc1cccc(OC)c1-c1cc2c(ccn2C)c2c1C(=O)NC2=O`: the melting point was in the range of 285 to 288 °C.

Molecule `O=C(C=Cc1ccccc1)Oc1ccc(Br)cc1` registered a melting point of 113 °C.

With `COc1nc2ccccc2nc1NC(=S)N1CCN(c2ccc(C(C)=O)cc2)CC1`, the melting point was 235 to 237 °C.

For `CNCC1(c2cccc(C(F)(F)F)c2)CCN(C(=O)CN2CCN(c3cnccn3)CC2)CC1`, the melting point fell in the range of 137 to 139 °C.

Consider `C=Cc1cc(C(C)NC(=O)OC(C)(C)C)cc(F)c1N` (stereo not drawn), for which the melting point lay within 59 to 61 °C.

In turn, `O=C(c1sc(NC(=O)N2CCOCC2)nc1-c1ccco1)C1CCCC1` displayed a melting point of 108 to 110 °C.

Take `CC(=O)O[C@H]1C[C@@H](N=O)C(Cl)O[C@@H]1COS(=O)(=O)c1ccc(C)cc1` (stereo partly drawn): the melting point fell in the range of 148 to 150 °C.

`Nc1nc2c(c(Nc3ccc(C(F)(F)F)cc3)n1)-c1ccccc1C2`: the melting point lay in the range of 229 to 231 °C.

`CC(C)(C)OC(=O)N1CCc2cc(NC(=O)NCc3ccc4c(c3)CN(C3CCC(=O)NC3=O)C4=O)ccc2C1` (stereo not drawn) yielded a melting point of 230 to 232 °C.

The molecule `COc1ccc(S(=O)(=O)C2(CCCC#Cc3cccc(N)c3)SC(=O)NC2=O)cc1` (stereo not drawn) yielded a melting point of 135 to 138 °C.

In turn, `COC(=O)c1cccc(SCc2c(O[C@H](Cn3ccnc3)c3ccccc3)ccc3c2CCCC3=O)c1` came in with a melting point of 65 °C.

Take `CCOc1cc2c(Nc3ccc(OC)cc3)c(C(=O)O)cnc2nc1C`: the melting point lay within 259 to 263 °C.

As to `CCN(CC)CCC(=O)NC1(c2ccccc2Cl)C(=O)Nc2ccc(Cl)cc21` (stereo not drawn), the melting point was in the range of 176 to 178 °C.

Molecule `CCN(CC)C(=O)c1ccc(C(F)(F)F)cc1-c1ccc(OC)c(OC)c1` registered a melting point of 108 to 110 °C.

Turning to `O=C1NCC(Cc2ccccc2)O1` (stereo not drawn), the melting point was 104 to 105 °C.

For the molecule `Cc1ccc(C(=O)Nc2cn(C3CCCCO3)nc2C(=O)NCCC(F)(F)F)cn1` (stereo not drawn), the melting point fell in the range of 147 to 148 °C.

`CC(C)c1cccc(C(C)C)c1NS(=O)(=O)CC(=O)NCC(c1ccccc1)C1CCCC1` (stereo not drawn) came in with a melting point of 168 to 170 °C.

With `C=CCNC(=O)Cc1c[nH]c2ccc(CCS(=O)(=O)NC)cc12`, the melting point was 123 to 125 °C.

In the case of `CN1C(=S)N(C)C2(c3ccccc3)CCCN12` (stereo not drawn), the melting point was in the range of 83 to 85 °C.

Regarding `CCc1ccc(C(CC(=O)O)C(=O)O)s1` (stereo not drawn), the melting point was in the range of 165 to 166 °C.

With `CN1Cc2c(-c3noc(CCl)n3)ncn2-c2cccc(Cl)c2C1=O`, the melting point was in the range of 208 to 210 °C.

As for `COC(=O)CCc1[nH]c(Cc2ccc(OCc3nc(-c4ccccc4)oc3C)cc2)nc1-c1ccccc1`, the melting point lay within 128 to 129 °C.

On to `N#Cc1ccccc1C(F)(F)C(F)(F)c1ccc(F)cc1`, for which the melting point was in the range of 90 to 93 °C.

The molecule `COC(=O)CCn1c(=O)n(CCCCCN2CCN(c3cccc(C(F)(F)F)c3)CC2)c(=O)c2cscc21` returned a melting point of 99.5 to 101 °C.

As for `O=C1CCCN1c1cccc(-n2cnc3cc(Br)cnc32)c1`, the melting point fell in the range of 194 to 195 °C.

In turn, `C#CCn1c2ccccc2c2sccc(=O)c21` showed a melting point of 144 °C.

For the molecule `CCc1nn(CCO)c(N)c1Cc1cc(Cl)cc(Cl)c1`, the melting point was found to be 135 °C.

Molecule `O=C(O)c1cc(Br)ccc1Sc1ccccc1` had a melting point of 171 to 173 °C.

The molecule `O=C(c1ccccc1SSc1ccccc1C(=O)N1CCC(CO)C1)N1CCC(CO)C1` (stereo not drawn) yielded a melting point of 169 to 171 °C.

`COC(=O)Nc1cc(OC2CCCC2)c(Cl)cc1F` registered a melting point of 120 to 123 °C.

`CCOC(=O)c1cn(C2CC2)c2c(F)c(-c3cc(C)nc(C)c3)c(F)cc2c1=S` registered a melting point of 194 to 195 °C.

`OCCC#Cc1ccc2ccccc2n1`: the melting point lay in the range of 89 to 91 °C.

For the molecule `Cc1cc2cc(CN3CCCC3)cnc2cc1NC(=O)c1ccc(-c2ccc(F)cc2)cc1F`, the melting point was in the range of 174 to 177 °C.

Molecule `CCOC(=O)c1cc(Cl)n2ncnc2n1` registered a melting point of 92.5 to 94 °C.

The molecule `O=C1c2c(Cl)cccc2-n2cnc(-c3noc(CN4CCCC4)n3)c2[C@@H]2CCN12` displayed a melting point of 117 to 120 °C.

Turning to `CCC(CC)Nc1c(NCc2ccc(Cl)c(Cl)c2)c(=O)c1=O`, the melting point was in the range of 268 to 269 °C.

In turn, `CN1C(=O)CSC(c2cccc(Cl)c2)c2cc(C(O)(c3ccc(Cl)cc3)c3cncn3C)ccc21` (stereo not drawn) yielded a melting point of 186 °C.

As for `Cc1ccccc1-c1ccc(Br)cc1C=O`, the melting point lay within 71 to 73 °C.

`O=C(NCCO)c1cccc(-c2cccc3nn(Cc4cc(F)cc(Cl)c4)cc23)c1` came in with a melting point of 188 to 189 °C.

As to `Cc1ccc(CCc2ccnc(N)c2N)cc1`, the melting point lay in the range of 119 to 121 °C.

For `CCOC(=O)c1csc(NC(=O)c2ccccc2)n1`, the melting point was 146 to 147 °C.

Take `CC(C)c1cccc(CCCn2ccnc2)c1NC(=O)CC1c2ccccc2Oc2ccccc21`: the melting point lay in the range of 194 to 195 °C.

Take `CCC(=O)c1cc(C2(c3cccc(Br)c3)N=C(N)N(C)C2=O)cn1CC` (stereo not drawn): the melting point was 100 to 102 °C.

Consider `Cc1cc(O)c(CC(=O)OC(C)C)cc1O`, for which the melting point was found to be 123 °C.

Consider `NC(=O)N(CCCOc1ccc(C(=O)O)cc1)c1ccc(Cl)cc1`, for which the melting point lay in the range of 172 to 174 °C.

Consider `O=C(Nc1ccccc1)Nc1cccc(-c2ccc(C(=O)N3CCN4CCC3CC4)o2)c1`, for which the melting point was 125 to 130 °C.

Molecule `CCOc1ccc(C(=O)CCC(=O)Nc2sc(-c3ccccc3)nc2-c2ccccc2)cc1OCC` had a melting point of 139 to 140 °C.

For the molecule `Nc1ccc(C2Oc3cc4c(cc3O2)CC2COC(=O)N2N=C4)cc1` (stereo not drawn), the melting point is 173 to 175 °C.

Consider `COc1ccc(OC)c(Sc2ncccc2C(=O)NCC23CC4CC(CC(C4)C2)C3)c1`, for which the melting point was in the range of 135 to 136 °C.

As for `O=C(O)COc1ccc2c(c1)Cc1sc(S(=O)(=O)CCC(c3ccccc3)c3ccccc3)nc1-2`, the melting point lay in the range of 172 to 174 °C.

Turning to `COC(=O)c1[nH]c(Br)c(Br)c1OC(C)C`, the melting point lay in the range of 124 to 125 °C.
